The test system of data set [1] is Leishmania major. Kind of data set: Antileishmanial activity against promastigote form of Leishmania major assessed as inhibition incubated for 72 hrs by MTT assay. Format: functional, organism-based. On the technique in general: Tetrazolium assays rely on reduction of a dye to a coloured formazan, in cell work by metabolically active cells.
In data set [2] the test system is Leishmania amazonensis. Kind of data set: Antileishmanial activity against promastigote form of Leishmania amazonensis assessed as parasite growth inhibition incubated for 72 hrs by regression analysis. In kind it is functional, organism-based.
Data set [3] has as its system Leishmania major. Kind of data set: Antileishmanial activity against promastigote form of Leishmania major assessed as inhibition of parasite growth by MTT colorimetric cell viability assay. In kind it is functional, organism-based.
The subject of data set [4] is Leishmania donovani. Kind of data set: Antileishmanial activity against promastigote form of Leishmania donovani. Format: functional, organism-based.
The test system of data set [5] is Leishmania donovani. Kind of data set: Antileishmanial activity against amastigote form of Leishmania donovani. In kind it is functional, organism-based.
The subject of data set [6] is Leishmania amazonensis. The data set can be described thus: Antileishmanial activity against amastigote form of Leishmania amazonensis assessed as parasite growth inhibition. In kind it is functional, organism-based.
The subject of data set [7] is Leishmania major. The data set can be described thus: Antileishmanial activity against promastigote form of Leishmania major assessed as inhibition at 100 uM incubated for 72 hrs by MTT assay relative to control. In kind it is functional.
In data set [8] the test system is Leishmania major. The data set can be described thus: Antileishmanial activity against promastigote form of Leishmania major. Format: functional, organism-based.
Another data set relates to Leishmania chagasi. Kind of data set: Antileishmanial activity against promastigote form of Leishmania chagasi. Format: functional, organism-based.
The next data set concerns Leishmania mexicana. Kind of data set: Antileishmanial activity against promastigote form of Leishmania mexicana. Format: functional, organism-based.
Data set [9] deals with Leishmania donovani. The data set can be described thus: Antileishmanial activity against amastigote form of Leishmania donovani at 50 uM assessed as inhibition of parasite growth relative to control. Format: functional.
The test system of data set [10] is Leishmania amazonensis. Kind of data set: Antileishmanial activity against intracellular Leishmania amazonensis MHOM/BR/75/Josefa amastigotes infected in BALB/c mouse peritoneal macrophages assessed as parasite growth inhibition incubated for 24 hrs by regression analysis. In kind it is functional, organism-based. The note with it: Peritoneal macrophage.
For data set [11], the system named is Leishmania amazonensis. The data set can be described thus: Antileishmanial activity against Leishmania amazonensis infected in BALB/c mouse assessed as reduction in parasite load at 10 mg/kg, sc administered for 14 days relative to control. Format: functional. Also on record: scale not given: the % may be the effect or the level left.
The test system of another data set is Peritoneal macrophage. The data set can be described thus: Cytotoxicity against mouse peritoneal macrophage. In kind it is functional, cell-based.
The test system of data set [12] is Leishmania infantum. Kind of data set: Antileishmanial activity against amastigote form of Leishmania infantum. Format: functional, organism-based.
Data set [13] relates to Leishmania major. Kind of data set: Antileishmanial activity against amastigote form of Leishmania major. Format: functional, organism-based.
Data set [14] concerns Leishmania amazonensis. The data set can be described thus: Antileishmanial activity against promastigote form of Leishmania amazonensis assessed as parasite growth inhibition incubated for 72 hrs by neubauer counting chamber analysis. Format: functional, organism-based.
The subject of data set [15] is Leishmania amazonensis. Kind of data set: Antileishmanial activity against promastigote form of Leishmania amazonensis. In kind it is functional, organism-based.
Data set [16] is described as follows: Selectivity index, ratio of IC50 for cytotoxicity against human THP-1 cells to IC50 for antileishmanial activity against axenic amastigote stage of Leishmania infantum infected in human THP-1 cells. Particulars: read-out: Selectivity Index. In kind it is toxicity, cell-based.
In data set [17] the test system is Leishmania infantum. The data set can be described thus: Antileishmanial activity against promastigote form of Leishmania infantum. Format: functional, organism-based.
In a further data set the test system is THP-1. The data set can be described thus: Cytotoxicity against human THP-1 cells assessed as inhibition incubated for 24 hrs by flow cytometry assay. In kind it is functional, cell-based. The note with it: THP-1, 24 h. (In general: Flow cytometry measures light scatter and fluorescence of single cells or particles in a stream.)
For the next data set, the system named is Leishmania braziliensis. Kind of data set: Antileishmanial activity against promastigote form of Leishmania braziliensis. Format: functional, organism-based. Particulars: Leishmania braziliensis.
Data set [18] has as its system Leishmania infantum. The data set can be described thus: Antileishmanial activity against axenic amastigote stage of Leishmania infantum infected in human THP-1 cells assessed as inhibition of parasite growth incubated for 24 hrs by flow cytometry assay. In kind it is functional, organism-based. The note with it: THP-1, 24 h.
Data set [19] has as its target Acetylcholinesterase (Homo sapiens) (UniProt P22303). Kind of data set: Inhibition of AChE (unknown origin) assessed as inhibition zone by Ellman's colorimetric method. In general terms: In Ellman's method for cholinesterases, released thiocholine reacts with DTNB.
For data set [20], the system named is Leishmania amazonensis. Kind of data set: Antileishmanial activity against promastigote form of Leishmania amazonensis assessed as inhibition of parasite growth at 100 uM incubated for 72 hrs by neubauer counting chamber analysis relative to control. Format: functional.
Data set [21] relates to Leishmania major. The data set can be described thus: Antileishmanial activity against promastigote form of Leishmania major assessed as inhibition at 0.1 uM incubated for 72 hrs by MTT assay relative to control. Format: functional.

In brackets after ≈: the same amount, converted by molar mass.

Sequence of Acetylcholinesterase (Homo sapiens) (P22303 whole entry): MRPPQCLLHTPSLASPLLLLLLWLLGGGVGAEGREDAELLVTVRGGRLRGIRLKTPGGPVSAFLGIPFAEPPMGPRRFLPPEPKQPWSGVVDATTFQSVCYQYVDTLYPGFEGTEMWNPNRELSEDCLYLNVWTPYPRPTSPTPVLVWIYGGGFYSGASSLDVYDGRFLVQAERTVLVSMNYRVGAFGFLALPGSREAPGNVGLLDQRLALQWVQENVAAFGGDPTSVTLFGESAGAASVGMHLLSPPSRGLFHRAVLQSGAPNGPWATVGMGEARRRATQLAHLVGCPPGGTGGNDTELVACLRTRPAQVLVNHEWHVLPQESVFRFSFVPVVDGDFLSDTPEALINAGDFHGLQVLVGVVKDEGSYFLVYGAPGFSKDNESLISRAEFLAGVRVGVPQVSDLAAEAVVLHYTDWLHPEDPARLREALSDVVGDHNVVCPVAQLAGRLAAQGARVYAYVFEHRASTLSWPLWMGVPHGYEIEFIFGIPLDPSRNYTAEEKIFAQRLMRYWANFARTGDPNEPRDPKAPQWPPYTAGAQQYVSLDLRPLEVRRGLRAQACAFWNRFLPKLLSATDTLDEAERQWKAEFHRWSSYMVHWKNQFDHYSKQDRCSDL

As to `O=c1oc2ccccc2cc1-c1nnc2n1N=C(c1ccc(Cl)cc1)CS2`, in the data set on Leishmania major [1], the half-maximal inhibitory concentration (IC50) was 2.86 µM.

Turning to `CCCc1cc(=O)oc2c(C(=O)C(C)CC)c(O)c(CC=C(C)C)c(O)c12` (stereo unspecified), in the data set with Leishmania amazonensis [2], the IC50 amounted to 30.1 µM.

Consider `C=C1CC(C/C(C)=C/COc2ccc3ccc(=O)oc3c2O)OC1=O` (stereo unspecified) [CLAUSLACTONE E], for which the half-maximal inhibitory concentration (IC50) with Leishmania major [3] was found to be 9.8 µM.

In the case of `COc1cc(O[C@@H]2O[C@H](CO)[C@@H](O)[C@H](O)[C@H]2O)c2c(-c3ccc(OC)c(OC)c3)cc(=O)oc2c1`, the figures for the IC50 in the data set on Leishmania donovani [4] and with Leishmania donovani [5] were 10.2 µM and greater than 90 µM, respectively.

In the case of `COC(=O)C1=C(N)Oc2cc(O)c3c(C)cc(=O)oc3c2C1c1ccc(Cl)cc1` (stereo unspecified), the IC50 with Leishmania amazonensis [6] stood at 38.4 µM.

With `C[C@@H]1[C@H](O)[C@@H](C)/C=C/C=C/C=C/C=C/C=C/C=C/C=C/[C@H](O[C@@H]2O[C@H](C)[C@@H](O)[C@H](N)[C@@H]2O)C[C@@H]2O[C@](O)(C[C@@H](O)C[C@@H](O)[C@H](O)CC[C@@H](O)C[C@@H](O)CC(=O)O[C@H]1C)C[C@H](O)[C@H]2C(=O)O` [AMPHOTERICIN B], the inhibition at 100 µM with Leishmania major [7] worked out at 79.8%.

For `N=C(N)c1ccc(OCCCCCOc2ccc(C(=N)N)cc2)cc1` [PENTAMIDINE], the EC50 in the data set on Leishmania donovani [4] turned out to be 1.41 µg/mL (≈ 4.14 µM); in the data set on Leishmania major [8], 1.46 µg/mL (≈ 4.29 µM); in the data set on Leishmania chagasi it was 5.2 µg/mL (≈ 15.3 µM); in the data set with Leishmania mexicana, 1.75 µg/mL (≈ 5.14 µM).

As to `N#CCC1=NN=C(c2cc3ccccc3oc2=O)C(CC(=O)c2ccc(Cl)cc2)O1` (stereo unspecified), in the data set with Leishmania donovani [9], the inhibition at 50 µM was 95%. In the data set on Leishmania donovani [5], half-maximal inhibition (IC50) required 14.2 µM.

Take `CCC(C)C(OC)c1c(OC)c(CC=C(C)C)c(OC)c2c(-c3ccccc3)cc(=O)oc12` (stereo unspecified): the half-maximal inhibitory concentration (IC50) in the data set with Leishmania amazonensis [10] amounted to 22.2 µM; in the data set with Leishmania amazonensis [2], 1.9 µM.

Take `COc1cc(O[C@@H]2O[C@H](CO)[C@@H](O)[C@H](O)[C@H]2O)c2c(-c3ccc(O)c(O)c3)cc(=O)oc2c1`: the IC50 in the data set with Leishmania donovani [4] was 28.9 µM; with Leishmania donovani [5], greater than 90 µM.

For the molecule MEGLUMINE ANTIMONATE, the Activity in the data set on Leishmania amazonensis [11] (time 14.0 day) worked out at 95.2%.

Turning to `CC1=CC[C@@H]2C(C)(C)[C@H](O)CC[C@@]2(C)[C@@H]1COc1ccc2ccc(=O)oc2c1` [FESELOL], the values for the IC50 with Peritoneal macrophage and in the data set with Leishmania infantum [12] were 8 µM and 6.8 µM, respectively.

In the data set on Leishmania major [13], `COc1ccc2ccc(=O)oc2c1CC=C(C)C` [OSTHOLE] registered an IC50 of 14.9 µg/mL (≈ 61.2 µM).

For the molecule `CC(C)=CCOc1ccc2c(-c3ccccc3)cc(=O)oc2c1`, the 50% inhibitory concentration (IC50) amounted to 21.4 µM with Leishmania amazonensis [14] and 58.1 µM in the data set with Leishmania amazonensis [6].

As to `CN(C)c1ccc(C(c2c(O)c3ccccc3oc2=O)c2c(O)c3ccccc3oc2=O)cc1`, it took 150 µg/mL to reach half-maximal inhibition in the data set with Leishmania donovani [4] (IC50).

As for `CCCCCCCCCCCCCCCCOP(=O)([O-])OCC[N+](C)(C)C` [MILTEFOSINE], the IC50 in the data set on Leishmania amazonensis [15] came to 9.4 µM; in the data set with Leishmania infantum [17] it was 7.5 µM; in the data set with THP-1, 18.5 µM; in the data set with Leishmania braziliensis it was 10.4 µM; with Leishmania infantum [18], 2.84 µM. For the same molecule, in [16], the selectivity ratio was 7.

For the molecule `COc1cc2ccc(=O)oc2cc1OC` [SCOPARONE], the IC50 in the data set on Leishmania amazonensis [15], in the data set on Leishmania infantum [17] and in the data set with Leishmania braziliensis was greater than 50 µM throughout. Also, the EC50 with Leishmania donovani [4] was 27.5 µg/mL (≈ 133 µM); in the data set on Leishmania major [8], 14.4 µg/mL (≈ 69.7 µM); in the data set on Leishmania chagasi it was 21.4 µg/mL (≈ 104 µM); in the data set on Leishmania mexicana it was 9.11 µg/mL (≈ 44.2 µM). Moreover, in data set [19], the inhibition zone (IZ) turned out to be 8 mm.

Turning to `O=c1cc(-c2ccccc2)c2ccc(O[C@@H]3O[C@H](CO)[C@@H](O)[C@H](O)[C@H]3O)cc2o1`, the IC50 in the data set on Leishmania amazonensis [14] amounted to 91.8 µM.

In the case of `CC1CC(CC(C)(O)C(O)COc2ccc3ccc(=O)oc3c2O)OC1=O` (stereo unspecified), the IC50 in the data set on Leishmania major [3] was greater than 100 µM.

For `Cc1cccc2cc(C(c3c(O)c4ccccc4oc3=O)N3CCCCC3)c(Cl)nc12` (stereo unspecified), it took 9.9 µM to reach half-maximal inhibition in the data set on Leishmania donovani [4] (IC50).

In the case of `CC1=CC[C@H]2[C@@H](CC[C@@H](O)C2(C)C)[C@]1(C)COc1ccc2ccc(=O)oc2c1`, 46.8 µg/mL (≈ 122 µM) corresponded to half-maximal inhibition in the data set with Leishmania major [8] (IC50).

For the molecule `O=c1oc2ccccc2cc1-c1nnc2n1N=C(c1ccc(Cl)c(Cl)c1)CS2`, in the data set on Leishmania major [1], the IC50 was 0.89 µM.

On to `COc1cc(OC)c2ccc(=O)oc2c1OC`, for which, in the data set on Leishmania amazonensis [14], the half-inhibitory concentration (IC50) was determined as 57.7 µM. Moreover, the inhibition at 100 µM with Leishmania amazonensis [20] came to 91%.

Consider `C=CC(C)(C)c1cc2cc3c(cc2oc1=O)OC(C)(C)[C@@H](O)C3`, for which the IC50 was determined as 35.8 µM with Leishmania amazonensis [15], 27.5 µM with Leishmania infantum [17] and 32.1 µM in the data set with Leishmania braziliensis. The Activity in the data set with Leishmania amazonensis [11] (time 14 day) is recorded as 95.6%.

In the case of `Cc1cccc(-n2c(-c3cc4ccccc4oc3=O)cs/c2=N/NC(=O)c2cc3ccccc3oc2=O)c1C`, in the data set with Leishmania major [21], the inhibition at 0.1 µM worked out at 53.9%. Moreover, the inhibition at 100 µM in the data set on Leishmania major [7] worked out at 70.4%.

As a reminder, the IC50 is the concentration that inhibits the measured activity by half. As usually defined, the inhibition is the percentage by which the read-out fell short of the control. The term EC50 denotes the concentration giving half of the maximal effect.
